Reference: PubChem BioAssay AID328 (DTP/NCI, 2004)
Several values for one entry are separate records, joined by “and”; a condition that tells them apart may be missing. Equal entries are not always repeated. Inconclusive results and toxic doses are left out.

System: BDF1 mice, P388 leukemia ip, median survival T/C
Assay: NCI In Vivo Anticancer Drug Screen. Data for tumor model P388 Leukemia (intraperitoneal) in B6D2F1 (BDF1) mice
Details: endpoint: median survival time, higher = longer survival
How it was run: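 Read-out is survival of treated animals expressed relative to the vehicle group, as a T/C ratio.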

[1] = dose: 100.0 mg/kg/injection, schedule: Q04DX003 (ip), vehicle: saline with Tween-80
[2] = dose: 50.0 mg/kg/injection, schedule: Q01DX009 (ip), vehicle: saline with Tween-80
[3] = dose: 100.0 mg/kg/injection, schedule: Q01DX009 (ip), vehicle: saline with Tween-80
[4] = dose: 200.0 mg/kg/injection, schedule: Q01DX009 (ip), vehicle: saline with Tween-80
[5] = dose: 200.0 mg/kg/injection, schedule: Q04DX003 (ip), vehicle: saline with Tween-80
[6] = dose: 400.0 mg/kg/injection, schedule: Q04DX003 (ip), vehicle: saline with Tween-80
[7] = dose: 400.0 mg/kg/injection, schedule: Q01DX009 (ip), vehicle: saline with Tween-80
[8] = dose: 50.0 mg/kg/injection, schedule: Q04DX003 (ip), vehicle: saline with Tween-80
[9] = dose: 75.0 mg/kg/injection, schedule: Q04DX003 (ip), vehicle: saline
[10] = dose: 6.25 mg/kg/injection, schedule: Q01DX009 (ip), vehicle: saline

COc1cc2c(c3oc(=O)ccc13)C(=O)CC(C)(C)O2
T/C (dose: 50.0 mg/kg/injection, schedule: Q01DX001 (ip), vehicle: saline): 108 % of control | T/C (dose: 100.0 mg/kg/injection, schedule: Q01DX001 (ip), vehicle: saline): 100 % of control | T/C (dose: 200.0 mg/kg/injection, schedule: Q01DX001 (ip), vehicle: saline): 104 % of control

CCCCCCOP(=O)(N1CC1)N1CC1
T/C (dose: 25.0 mg/kg/injection, schedule: Q01DX009 (ip), vehicle: saline): 123 % of control | T/C (dose: 50.0 mg/kg/injection, schedule: Q01DX009 (ip), vehicle: saline): 90 % of control | T/C [1]: 113 % of control

C=C1CCCCC1O (stereo not drawn)
T/C [2]: 101 % of control | T/C [3]: 95 % of control | T/C [4]: 101 % of control

COC(OC)c1nc(N)[nH]c(=O)c1Cc1ccc(Br)cc1
T/C [1]: 95 % of control | T/C [5]: 104 % of control | T/C [6]: 100 % of control

O=C(O)O.[Mn]
T/C (dose: 100.0 mg/kg/injection, schedule: Q01DX010 (ip), vehicle: water): 86 % of control and 93 % of control | T/C (dose: 200.0 mg/kg/injection, schedule: Q01DX010 (ip), vehicle: water): 91 % of control | T/C (dose: 400.0 mg/kg/injection, schedule: Q01DX010 (ip), vehicle: water): 77 % of control | T/C (dose: 800.0 mg/kg/injection, schedule: Q01DX010 (ip), vehicle: water): 83 % of control and 86 % of control

CC1(C(=O)O)CCC(C(=O)Nc2ccccc2)C1(C)C (stereo not drawn)
T/C [3]: 92 % of control | T/C [1]: 100 % of control | T/C [4]: 92 % of control | T/C [5]: 90 % of control | T/C [7]: 92 % of control | T/C [6]: 104 % of control

CCOC(=O)c1cnc2ccc(OC)cc2c1Cl
T/C [2]: 95 % of control | T/C [8]: 91 % of control | T/C [3]: 111 % of control | T/C [1]: 103 % of control | T/C [4]: 99 % of control | T/C [5]: 103 % of control | T/C [7]: 96 % of control | T/C [6]: 95 % of control

Cc1ncc(CO)c(C2NOCc3nscc32)c1O (stereo not drawn)
T/C (dose: 7.0 mg/kg/injection, schedule: Q01DX009 (ip), vehicle: Klucel (hydroxypropylcellulose) (HPC)): 95 % of control | T/C (dose: 11.25 mg/kg/injection, schedule: Q01DX001 (ip), vehicle: saline): 104 % of control | T/C (dose: 14.0 mg/kg/injection, schedule: Q01DX009 (ip), vehicle: Klucel (hydroxypropylcellulose) (HPC)): 95 % of control | T/C (dose: 19.0 mg/kg/injection, schedule: Q04DX003 (ip), vehicle: saline): 95 % of control | T/C (dose: 22.5 mg/kg/injection, schedule: Q01DX001 (ip), vehicle: saline): 104 % of control | T/C (dose: 45.0 mg/kg/injection, schedule: Q01DX001 (ip), vehicle: saline): 100 % of control | T/C (dose: 45.0 mg/kg/injection, schedule: Q04DX003 (ip), vehicle: saline): 90 % of control

CCOC(=O)CCC(NC(=O)c1ccc(N(C)S(=O)(=O)c2ccc(C)cc2)c(F)c1)C(=O)OCC (stereo not drawn)
T/C [9]: 95 % of control | T/C (dose: 150.0 mg/kg/injection, schedule: Q04DX003 (ip), vehicle: saline): 108 % of control | T/C (dose: 300.0 mg/kg/injection, schedule: Q04DX003 (ip), vehicle: saline): 100 % of control

CC(=O)c1ccc2ccccc2c1O
T/C (dose: 100.0 mg/kg/injection, schedule: Q01DX001 (ip), vehicle: other): 90 % of control | T/C [3]: 104 % of control | T/C [1]: 109 % of control | T/C (dose: 175.0 mg/kg/injection, schedule: Q01DX009 (ip), vehicle: saline with Tween-80): 122 % of control | T/C (dose: 200.0 mg/kg/injection, schedule: Q01DX001 (ip), vehicle: other): 100 % of control | T/C [4]: 104 % of control | T/C [5]: 104 % of control | T/C (dose: 400.0 mg/kg/injection, schedule: Q01DX001 (ip), vehicle: other): 95 % of control | T/C [7]: 118 % of control | T/C [6]: 104 % of control | T/C (dose: 600.0 mg/kg/injection, schedule: Q01DX009 (ip), vehicle: saline with Tween-80): 113 % of control

C/C=C/C[n+]1cccc2ccccc21
T/C (dose: 6.25 mg/kg/injection, schedule: Q01DX009 (ip), vehicle: Klucel (hydroxypropylcellulose) (HPC)): 86 % of control | T/C (dose: 6.25 mg/kg/injection, schedule: Q04DX003 (ip), vehicle: saline): 104 % of control | T/C (dose: 12.5 mg/kg/injection, schedule: Q01DX009 (ip), vehicle: Klucel (hydroxypropylcellulose) (HPC)): 90 % of control | T/C (dose: 12.5 mg/kg/injection, schedule: Q04DX003 (ip), vehicle: saline): 104 % of control | T/C (dose: 25.0 mg/kg/injection, schedule: Q01DX009 (ip), vehicle: Klucel (hydroxypropylcellulose) (HPC)): 86 % of control | T/C (dose: 25.0 mg/kg/injection, schedule: Q04DX003 (ip), vehicle: saline): 109 % of control

Cc1cccc(/C=N/Nc2ccccn2)n1
T/C (dose: 50.0 mg/kg/injection, schedule: Q01DX005 (ip), vehicle: saline with Tween-80): 108 % of control | T/C (dose: 100.0 mg/kg/injection, schedule: Q01DX005 (ip), vehicle: saline with Tween-80): 118 % of control

CCC(C)C(NC(=O)CCN)C(=O)O (stereo not drawn)
T/C (dose: 50.0 mg/kg/injection, schedule: Q01DX005 (ip), vehicle: saline): 104 % of control | T/C (dose: 100.0 mg/kg/injection, schedule: Q01DX005 (ip), vehicle: saline): 103 % of control | T/C (dose: 200.0 mg/kg/injection, schedule: Q01DX005 (ip), vehicle: saline): 100 % of control

COc1ccc([I+]c2ccccc2)cc1
T/C (dose: 1.56 mg/kg/injection, schedule: Q01DX009 (ip), vehicle: saline): 87 % of control | T/C (dose: 3.13 mg/kg/injection, schedule: Q01DX009 (ip), vehicle: saline): 104 % of control | T/C [10]: 112 % of control and 120 % of control | T/C (dose: 12.5 mg/kg/injection, schedule: Q04DX003 (ip), vehicle: saline sonified): 105 % of control | T/C (dose: 25.0 mg/kg/injection, schedule: Q04DX003 (ip), vehicle: saline sonified): 110 % of control

CN(CCS)Cc1ccccc1
T/C (dose: 25.0 mg/kg/injection, schedule: Q04DX003 (ip), vehicle: saline with Tween-80): 100 % of control | T/C [8]: 104 % of control | T/C [1]: 100 % of control

CC1CN1CCS(=O)(=O)CCN1CC1C (stereo not drawn)
T/C (dose: 22.0 mg/kg/injection, schedule: Q04DX003 (ip), vehicle: saline): 105 % of control | T/C (dose: 33.0 mg/kg/injection, schedule: Q04DX003 (ip), vehicle: saline): 100 % of control | T/C (dose: 50.0 mg/kg/injection, schedule: Q04DX003 (ip), vehicle: saline): 111 % of control | T/C [9]: 122 % of control | T/C (dose: 150.0 mg/kg/injection, schedule: Q01DX009 (ip), vehicle: other): 163 % of control | T/C (dose: 225.0 mg/kg/injection, schedule: Q01DX009 (ip), vehicle: other): 209 % of control

CCOC(=O)c1cc(C)nnc1C(=O)OCC
T/C (dose: 100.0 mg/kg/injection, schedule: Q04DX003 (ip), vehicle: saline): 95 % of control | T/C (dose: 200.0 mg/kg/injection, schedule: Q04DX003 (ip), vehicle: saline): 95 % of control | T/C (dose: 400.0 mg/kg/injection, schedule: Q04DX003 (ip), vehicle: saline): 91 % of control

O=CN(O)CC(=O)O.[Zn]
T/C (dose: 4.12 mg/kg/injection, schedule: Q01DX009 (ip), vehicle: saline): 118 % of control and 122 % of control | T/C [10]: 118 % of control and 122 % of control | T/C (dose: 8.7 mg/kg/injection, schedule: Q04DX003 (ip), vehicle: saline): 104 % of control | T/C (dose: 9.37 mg/kg/injection, schedule: Q01DX009 (ip), vehicle: saline): 118 % of control | T/C (dose: 13.0 mg/kg/injection, schedule: Q04DX003 (ip), vehicle: saline): 113 % of control | T/C (dose: 19.5 mg/kg/injection, schedule: Q04DX003 (ip), vehicle: saline): 113 % of control | T/C (dose: 30.0 mg/kg/injection, schedule: Q04DX003 (ip), vehicle: saline): 118 % of control

O=c1c2ccccc2c2c3c1cccc3c1cccc3c(=O)c4ccccc4c2c31
T/C [1]: 86 % of control | T/C [5]: 90 % of control | T/C [6]: 90 % of control

CC1CC2CCCCN2O1 (stereo not drawn)
T/C (dose: 100.0 mg/kg/injection, schedule: Q04DX002 (ip), vehicle: saline with Tween-80): 102 % of control | T/C (dose: 200.0 mg/kg/injection, schedule: Q04DX002 (ip), vehicle: saline with Tween-80): 103 % of control | T/C (dose: 400.0 mg/kg/injection, schedule: Q04DX002 (ip), vehicle: saline with Tween-80): 105 % of control

O=C(c1ccccc1)c1cccc(Cl)c1
T/C (dose: 50.0 mg/kg/injection, schedule: Q04DX003 (ip), vehicle: Klucel (hydroxypropylcellulose) (HPC)): 104 % of control | T/C (dose: 100.0 mg/kg/injection, schedule: Q04DX003 (ip), vehicle: Klucel (hydroxypropylcellulose) (HPC)): 90 % of control | T/C (dose: 200.0 mg/kg/injection, schedule: Q04DX003 (ip), vehicle: Klucel (hydroxypropylcellulose) (HPC)): 104 % of control

O=C1C(=O)c2ccccc2C([O-])=C1[n+]1ccccc1
T/C [8]: 109 % of control | T/C [1]: 95 % of control | T/C [5]: 90 % of control
